In patent US10251852B2, “Composition and methods for treatment of lung disorders characterized by cholesterol dysregulation” (priority 2016, dated 2019):

Experiments:
Csf2rb−/− mice [1] = test: In vivo LXR stimulation study (oral T0901317 in PAP mice); design: species or system mouse; conditions: oral gavage 10 mg/kg/day, 7 days
Protocol: Bronchoalveolar lavage and alveolar macrophage collection in mice.
RNA isolation and gene expression analysis.
In vivo LXR Stimulation Studies. Mice were administered T0901317 by oral gavage once daily for 7 days at a dose of 10 mg/kg/BW/Day using propylene glycol and tween 80 as a vehicle. On the 7th day alveolar macrophages were collected by bronchoalveolar lavage. Following brief adherence to tissue culture plastic to remove BAL debris, alveolar macrophages were then used for RNA isolation and gene expression analysis by qRT-PCR as described above

[2] = tested on: BMD macrophages from PAP mice (Csf2−/−); test: In vitro mouse PPARγ & LXR stimulation, gene expression by qRT-PCR; format: cell-based; conditions: T0901317 1 μm
Protocol: Tissue macrophage differentiation and culture. All cells were maintained in the culture medium of Dulbecco's modified eagle's medium (DMEM) (Life Technologies) plus 10% FBS, 50 U ml-1 penicillin, and 50 μg ml-1 streptomycin. Bone marrow cells were obtained from 6-8-week-old mice by flushing the tibias and femurs with the culture media described above.
Mononuclear cells were isolated by centrifugation over a Ficoll-Paque (GE Healthcare Life Sciences) gradient at room temperature for 30 minutes. The buffy coat was washed in PBS and the cellular pellet re-suspended in the culture medium with M-CSF (R&D Systems) (5 ng/ml) plus or minus GM-CSF (R&D Systems) as dictated per experimental requirements. Cells were cultured in a 10 cm dish overnight at 37° C. and the next day non-adherent cells were recovered and transferred to a new dish and cultured under the same conditions for an additional 24 hrs. At this stage non-adherent cells were discarded and adherent cells cultured for an additional five days to allow differentiation of bone marrow derived (BMD) macrophages. Peritoneal macrophages were isolated from the peritoneal without chemical solicitation by washing with 8 ml of PBS plus 0.5 mM EDTA. WT peritoneal macrophages were cultured in vitro in culture medium with M-CSF (5 ng/ml) and GM-CSF […], and Csf2^−/− peritoneal macrophages were cultured in culture medium with M-CSF alone. […]

[3] = tested on: BMD macrophages from PAP mice (Csf2−/−); test: In vitro surfactant challenge assay after PPARγ/LXR stimulation (esterified cholesterol accumulation); format: cell-based, mouse
Protocol: (§1) In vitro surfactant challenge assay. BMD macrophages or peritoneal macrophages were seeded at 4×10^5 cells per well of a 12 well tissue culture plate and allowed to adhere with fresh media and cytokines overnight. Cells were then challenged for 24 hrs with pulmonary surfactant isolated from a hereditary PAP patient (PAP-S). After the challenge cells were gently washed with PBS to remove exogenous PAP-S and cellular lipids were then extracted and analyzed by the amplex red cholesterol assay.
In vitro mouse PPARγ & LXR stimulation Studies. BMD macrophages were prepared as previously described in the presence of M-CSF (10 ng/ml). On the 7th day macrophages were stimulated for 24 hrs with M-CSF (10 ng/ml), GM-CSF (10 ng/ml), Pioglitazone (10 μm) or T0901317 (1 μm from Tocris). Macrophages were then used for an in vitro surfactant challenge assay or gene expression analysis by qRT-PCR as described above.

[4] = tested on: alveolar macrophages from PAP patients; test: Ex vivo human PPARγ & LXR stimulation, mRNA by qRT-PCR; format: cell-based
Protocol: Bronchoalveolar lavage and alveolar macrophage collection in human participants. This study was conducted with the approval of the Cincinnati Children's Hospital Medical Center institutional review board and all participants or their legal guardians gave written informed consent. Human BAL fluid and alveolar macrophages were obtained from BAL using flexible bronchoscopy or from discarded material of PAP patients undergoing therapeutic whole lung lavage. After the fluid was centrifuged at 283 g for 10 minutes, the cellular pellet was re-suspended in the culture medium. Human alveolar macrophages were isolated by adherence to tissue culture plastic. Extracellular debris was removed by gentle washing with PBS.
(§2) RNA isolation and gene expression analysis. Total RNA was isolated using Trizol (Life Technologies) and was converted to cDNA using the Invitrogen Superscript III first strand synthesis kit (Life Technologies) according to the manufacturer's protocol. Standard quantitative RT-PCR (qRT-PCR) was performed as previously described 10 on an Applied Biosystems 7300 Real-Time PCR System (Life Technologies) to measure transcript abundance using TaqMan® oligonucleotide primer sets (all from Life Technologies). Expression of target genes was normalized to the expression of 18s RNA.
Ex vivo human PPARγ & LXR stimulation studies. After purifying alveolar macrophages, fresh media was added to the adherent alveolar macrophages containing human M-CSF (R&D) (25ng/ml) only or M-CSF plus Pioglitazone (Sigma) (10 μM) or T0901317 (Tocris) (1 μM) for 24 hrs. qRT-PCR was performed as described above.

Csf2−/− BMD macrophages = test: GM-CSF plasticity studies (withdrawal, multi-day stimulation, dose response) with PAP-S challenge; format: cell-based, mouse; conditions: for reduction in exposure-related cholesterol ester accumulation: addition of GM-CSF (10 ng/ml) to macrophages cultured without it; for increase in exposure-related cholesterol ester accumulation: withdrawal of GM-CSF
Protocol: as §1
GM-CSF withdrawal. Csf2^−/− BMD macrophages were differentiated and maintained in media containing M-CSF and GM-CSF. After 7 days of differentiation cells were split into 12well tissue culture plates and allowed to adhere overnight in GM-CSF containing media. The following day the media was changed to M-CSF only and cells were challenged with PAP-S for 24hrs immediately or 24, 48, and 72 hours after GM-CSF withdrawal. Cellular lipids were extracted, normalized to total protein, and analyzed. Csf2^−/− BMD macrophages were used to ensure elimination of any potential autologous GM-CSF expression-related stimulation.
Multi-Day GM-CSF stimulation. Csf2^−/− BMD macrophages were generated in media containing M-CSF. On the 7th day cells were stimulated for 0, 24, 48, or 72 hrs with 10 ng/ml of GM-CSF before 24 hr surfactant challenge with PAP-S. Cellular lipids were extracted, normalized to total protein, and analyzed.
GM-CSF dose response. Csf2^−/− BMD macrophages were generated in media containing M-CSF. On the 7th day cells were stimulated by a dose response of GM-CSF (0, 0.1,1,10, and 100 ng/ml) for 24 hrs before surfactant challenge with PAP-S. Cellular lipids were extracted, normalized to total protein, and analyzed.

Csf2rb−/− mice [5] = test: In vivo PPARγ stimulation study (oral pioglitazone in PAP mice)
Text: Bronchoalveolar lavage and alveolar macrophage collection in mice. GM-CSF (CSF2) knockout (Csf2^−/−) mice5 and Csf2rb gene-deficient (Csf2rb^−/−)14 were reported previously (referred to mouse PAP). C57B1/6 mice (referred to as wild type or WT mice) were purchased from Charles River. All mice were bred, housed, and studied in the Cincinnati Children's Research Foundation Vivarium using protocols approved by the Institutional Animal Care and Use Committee. Epithelial lining fluid and non-adherent cells were collected from indicated mice by bronchoalveolar lavage (BAL) using five lml aliquots of PBS plus 0.5 mM EDTA4. The 1 ml aliquots were pooled and the recovered volumes recorded. The supernatant was removed and the cellular pellets were re-suspended in the culture media for isolation of alveolar macrophages by adherence to tissue culture plastic.
Cholesterol levels. Total and free cholesterol levels were measured by the amplex red cholesterol assay (Life Technologies) per the manufacturer's protocol. Esterified cholesterol was then calculated by subtracting free cholesterol from the total value.
Turbidity. The turbidity of the fluid was measured as previously described^4,55 Briefly, 250 uls of the BAL were diluted into 750 uls of PBS and the optical density measured at a wavelength of 600 nm and multiplied by the dilution factor.
as §2
In vivo PPARγ stimulation studies. Pioglitazone was incorporated into standard rodent chow at a dose expected to deliver 20 mg/kg BW/Day. BAL turbidity and alveolar macrophage gene expressions were measured as described above. GM-CSF levels and total cholesterol levels in the BAL were measured in the supernatant of fluid after centrifuge at 283 g for 10 minutes at 4° C. by enzyme-linked immunosorbent assay (ELISA) (R&D systems) and Amplex Red Cholesterol assay respectively as described above.

[6] = tested on: patients with insulin resistance; conditions: literature ref. 53; cited from earlier work
[7] = oral in food, 20 mg/kg/day, six weeks, vs untreated age-matched controls (FIG. 5F-5G)
[8] = pioglitazone 10 μM, 24 hrs, compared to untreated controls (FIG. 5A-5B)

Molecule: O=S(=O)(c1ccccc1)N(CC(F)(F)F)c1ccc(C(O)(C(F)(F)F)C(F)(F)F)cc1 [T0901317, N-(2,2,2-trifluoroethyl)-N-[4-[2,2,2-trifluoro-1-hydroxy-1-(trifluoromethyl)ethyl]phenyl]-benzenesulfonamide]
- Abca1 mRNA in alveolar macrophages (Csf2rb−/− mice [1]; vs untreated age-matched controls (FIG. 8F)): significantly increased
- Abcg1 mRNA in alveolar macrophages (Csf2rb−/− mice [1]; vs untreated age-matched controls (FIG. 8G)): significantly increased
- Abcg1 mRNA level ([2]; 24 hrs (FIG. 8C)): increased
- Abca1 mRNA level ([2]; 24 hrs (FIG. 8D)): increased
- cholesterol ester accumulation following exposure to PAP-surfactant ([3]; T0901317 1 μm 24 hrs, then PAP-S 24 hrs (FIG. 8E)): reduced
- ABCG1 mRNA ([4]; T0901317 1 μM, 24 hrs (FIG. 8A)): increase
- ABCA1 mRNA ([4]; T0901317 1 μM, 24 hrs (FIG. 8B)): increase

Molecule: GM-CSF: granulocyte/macrophage-colony stimulating factor (R&D Systems)
- cholesterol clearance capacity of macrophages (Csf2−/− BMD macrophages; GM-CSF 0, 0.1, 1, 10, 100 ng/ml for 24 hrs before PAP-S challenge (FIG. 3N)): increased the cholesterol clearance capacity of macrophages in dose-dependent fashion
- reduction in exposure-related cholesterol ester accumulation (Csf2−/− BMD macrophages; by 24 hours (FIG. 3M)): 27%
- reduction in exposure-related cholesterol ester accumulation (Csf2−/− BMD macrophages; by 72 hours (FIG. 3M)): 49%
- increase in exposure-related cholesterol ester accumulation (Csf2−/− BMD macrophages; by 24 hours (FIG. 3L)): 86%
- increase in exposure-related cholesterol ester accumulation (Csf2−/− BMD macrophages; by 72 hours (FIG. 3L)): 309%

Molecule: CCc1ccc(CCOc2ccc(CC3SC(=O)NC3=O)cc2)nc1 (stereo not shown) [pioglitazone, Pioglitazone]
- Abca1 mRNA in alveolar macrophages (Csf2rb−/− mice [5]; [7]): significantly increased
- Abcg1 mRNA in alveolar macrophages (Csf2rb−/− mice [5]; [7]): significantly increased
- BAL turbidity (Csf2rb−/− mice [5]; oral in food, 20 mg/kg/day, six weeks, vs untreated age-matched controls (FIG. 5H)): significantly reduced
- BAL cholesterol level (Csf2rb−/− mice [5]; oral in food, 20 mg/kg/day, six weeks, vs untreated age-matched controls (FIG. 5I)): significantly reduced
- adverse effects (Csf2rb−/− mice [5]; oral pioglitazone in Csf2rb−/− mice (not shown)): no apparent adverse effects
- severity of PAP lung disease (Csf2rb−/− mice [5]; pioglitazone therapy of GM-CSF deficient mice (summary statement)): reduced the severity
- risk of stroke or myocardial infarction [6]: reduce the risk
- cholesterol ester accumulation following exposure to PAP-surfactant ([3]; pioglitazone 10 μm 24 hrs, then PAP-S 24 hrs (FIG. 5E)): reduced
- ABCA1 mRNA [4, 8]: did not alter
- ABCG1 mRNA [4, 8]: markedly increased
